Assays:
recombinant human PEPD = recombinant human PEPD (Homo sapiens (Human), UniProt P12955); experiment: PEPD substrate assay (Ala-Pro cleavage, L-alanine assay kit); assay type: biochemical; conditions: 50 nM recombinant human PEPD, Ala-Pro 40 μM, 25° C.
Experimental: Protein purification. Human prolidase (PEPD) was generated and purified. XPNPEP1 in pET15-b containing a 6× His tag was expressed in E. coli Rosetta DE3 cells.
Substrate assays. For the PEPD assay, a solution of substrate (Ala-Pro) was prepared in DMSO. 24 μL of 50 nM recombinant human PEPD were added to a 384-well, black, clear-bottom plate (Corning) with 1 μL dipeptide Ala-Pro (final conc. 40 μM). […] For the AMC reporter assays, experiments were performed with cell lysates. 5 μL solution of substrate (2.5 mM Ala-AMC) was added the mixture of 10 μL HEK293T cell lysates (2.5 mg/ml) and 10 μL of indicated compounds in a 384-well, black, clear-bottom plate (Corning) to initiate the reaction. Substrate cleavage was measured as increasing fluorescence signal (Ex/Em: 380/460 nm) recorded at 25° C. for 20 mins. […] H-Lys(abz)-Pro-Pro-pNA substrate was added to a final concentration of 100 μM, and fluorescence was monitored (Ex/Em: 320/410) for 60 mins.

XPNPEP1 = XPNPEP1 (Homo sapiens (Human), UniProt Q9NQW7); experiment: XPNPEP1 substrate assay (H-Lys(abz)-Pro-Pro-pNA); assay type: biochemical; conditions: XPNPEP1 3.5 nM, substrate 100 μM, 60 mins
Experimental: Protein purification. Human prolidase (PEPD) was generated and purified. XPNPEP1 in pET15-b containing a 6× His tag was expressed in E. coli Rosetta DE3 cells. Cells were induced with IPTG for 16 h at 37° C., pelleted and lysed in buffer A (20 mM Tris-HCl (pH 7.9), 500 mM NaCl, and 10% (v/v) glycerol) by sonication. Affinity purification chromatography was performed using TALON resin and according to previously published protocols (Li et al., 2008).
Substrate assays. For the PEPD assay, a solution of substrate (Ala-Pro) was prepared in DMSO. 24 μL of 50 nM recombinant human PEPD were added to a 384-well, black, clear-bottom plate (Corning) with 1 μL dipeptide Ala-Pro (final conc. 40 μM). Alanine liberated was measured as increasing fluorescence signal (Resorufin, Ex/Em: 535/587 nm) recorded at 25° C. using an L-alanine assay kit (Abcam, ab83394) at 25° C. according to manufacturer's instructions. For the AMC reporter assays, experiments were performed with cell lysates. 5 μL solution of substrate (2.5 mM Ala-AMC) was added the mixture of 10 μL HEK293T cell lysates (2.5 mg/ml) and 10 μL of indicated compounds in a 384-well, black, clear-bottom plate (Corning) to initiate the reaction. Substrate cleavage was measured as increasing fluorescence signal (Ex/Em: 380/460 nm) recorded at 25° C. for 20 mins. For XPNPEP1 enzymes (XPNPEP1 3.5 nM) were plated on a black 384-well clear bottom plate and treated with the indicated doses of compounds. H-Lys(abz)-Pro-Pro-pNA substrate was added to a final concentration of 100 μM, and fluorescence was monitored (Ex/Em: 320/410) for 60 mins.

recombinant human PEPD, sequence (P12955 whole entry): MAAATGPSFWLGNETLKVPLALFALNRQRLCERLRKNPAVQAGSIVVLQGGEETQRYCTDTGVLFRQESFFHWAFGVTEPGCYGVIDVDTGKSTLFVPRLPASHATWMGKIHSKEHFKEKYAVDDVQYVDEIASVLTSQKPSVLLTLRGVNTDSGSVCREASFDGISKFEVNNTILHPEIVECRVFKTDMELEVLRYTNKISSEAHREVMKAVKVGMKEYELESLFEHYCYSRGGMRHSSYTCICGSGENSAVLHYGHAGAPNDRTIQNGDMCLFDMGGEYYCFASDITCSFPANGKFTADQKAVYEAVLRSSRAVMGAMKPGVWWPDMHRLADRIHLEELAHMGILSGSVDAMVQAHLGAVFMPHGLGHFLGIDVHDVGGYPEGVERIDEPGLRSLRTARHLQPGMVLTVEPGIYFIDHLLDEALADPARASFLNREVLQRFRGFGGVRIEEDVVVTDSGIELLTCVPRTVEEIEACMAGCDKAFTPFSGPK
XPNPEP1, sequence (Q9NQW7 whole entry): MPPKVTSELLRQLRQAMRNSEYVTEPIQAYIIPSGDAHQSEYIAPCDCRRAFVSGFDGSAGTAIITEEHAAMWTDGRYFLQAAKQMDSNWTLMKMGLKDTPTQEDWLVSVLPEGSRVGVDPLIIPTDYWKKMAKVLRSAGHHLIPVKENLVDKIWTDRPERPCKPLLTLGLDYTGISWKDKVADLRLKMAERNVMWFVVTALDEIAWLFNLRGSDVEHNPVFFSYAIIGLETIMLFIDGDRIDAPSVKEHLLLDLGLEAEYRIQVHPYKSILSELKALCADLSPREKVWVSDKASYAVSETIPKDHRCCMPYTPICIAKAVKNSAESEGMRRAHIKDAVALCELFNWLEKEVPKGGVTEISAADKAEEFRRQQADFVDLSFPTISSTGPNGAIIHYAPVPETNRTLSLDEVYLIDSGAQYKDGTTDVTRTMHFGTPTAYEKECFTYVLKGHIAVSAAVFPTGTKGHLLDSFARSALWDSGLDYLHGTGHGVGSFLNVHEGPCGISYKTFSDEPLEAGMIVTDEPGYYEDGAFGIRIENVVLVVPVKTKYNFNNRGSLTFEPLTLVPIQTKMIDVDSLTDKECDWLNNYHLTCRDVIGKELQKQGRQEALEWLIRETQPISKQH

## COC(=O)[C@@H]1C[C@H](F)CN1C(=O)[C@@H](O)[C@H](N)CC(C)C [CQ35, Methyl (2S,4S)-1-((2S,3R)-3-amino-2-hydroxy-5-methylhexanoyl)-4-fluoropyrrolidine-2-carboxylate]
Recombinant human PEPD
  IC50: 0.84 µM
XPNPEP1
  IC50: 74 µM

## COC(=O)[C@@H]1CC2(CC2)CN1C(=O)[C@@H](O)[C@H](N)CC(C)C [CQ36, Methyl (S)-5-((2S,3R)-3-amino-2-hydroxy-5-methylhexanoyl)-5-azaspiro[2.4]heptane-6-carboxylate]
Recombinant human PEPD
  IC50: 1 µM
XPNPEP1
  IC50: 324 µM

## COC(=O)[C@@H]1C[C@H](C)CN1C(=O)[C@@H](O)[C@H](N)CC(C)C [CQ38, Methyl (2S,4S)-1-((2S,3R)-3-amino-2-hydroxy-5-methylhexanoyl)-4-methylpyrrolidine-2-carboxylate]
Recombinant human PEPD
  IC50: 2.2 µM
XPNPEP1
  IC50: 154 µM

## COC(=O)[C@@H]1CCCN1C(=O)[C@@H](O)[C@H](N)Cc1ccccc1 [CQ42, Methyl ((2S,3R)-3-amino-2-hydroxy-4-phenylbutanoyl)-L-prolinate]
Recombinant human PEPD
  IC50: 7.6 µM
XPNPEP1
  IC50: 241 µM

## COC(=O)[C@@H]1CCCN1C(=O)[C@@H](O)[C@H](N)CCC(F)(F)F [CQ43, Methyl ((2S,3R)-3-amino-6,6,6-trifluoro-2-hydroxyhexanoyl)-L-prolinate]
Recombinant human PEPD
  IC50: 1.3 µM
XPNPEP1
  IC50: 115 µM

## COC(=O)[C@@H]1CCCN1C(=O)[C@@H](O)[C@H](N)CC(C)(C)C [CQ45, Methyl ((2S,3R)-3-amino-2-hydroxy-5,5-dimethylhexanoyl)-L-prolinate]
Recombinant human PEPD
  IC50: 1.5 µM
XPNPEP1
  IC50: 57 µM

## COC(=O)[C@@H]1CCCN1C(=O)[C@@H](O)[C@H](N)C(C)C [CQ59, Methyl ((2S,3R)-3-amino-2-hydroxy-4-methylpentanoyl)-L-prolinate]
Recombinant human PEPD
  IC50: 1.8 µM
XPNPEP1
  IC50: 190 µM

## CCCC[C@@H](N)[C@H](O)C(=O)N1CCC[C@H]1C(=O)OC [CQ63]
Recombinant human PEPD
  IC50: 0.53 µM
XPNPEP1
  IC50: 92 µM

## COC(=O)[C@@H]1CCCN1C(=O)[C@@H](O)[C@H](N)c1ccccc1 [CQ64, Methyl ((2S,3R)-3-amino-2-hydroxy-3-phenylpropanoyl)-L-prolinate]
Recombinant human PEPD
  IC50: 2.8 µM
XPNPEP1
  IC50: 203 µM

## COC(=O)[C@@H]1CCCN1C(=O)[C@@H](O)[C@H](N)c1ccco1 [CQ68, Methyl ((2S,3S)-3-amino-3-(furan-2-yl)-2-hydroxypropanoyl)-L-prolinate]
Recombinant human PEPD
  IC50: 1.7 µM
XPNPEP1
  IC50: 69 µM

## COC(=O)[C@@H]1CCCN1C(=O)[C@@H](O)[C@H](N)c1ccc2ccoc2c1 [CQ69, Methyl ((2S,3R)-3-amino-3-(benzofuran-6-yl)-2-hydroxypropanoyl)-L-prolinate]
Recombinant human PEPD
  IC50: 1.8 µM
XPNPEP1
  IC50: 47 µM

## COC(=O)[C@@H]1CCCN1C(=O)[C@@H](O)[C@H](N)c1cccs1 [CQ70, Methyl ((2S,3S)-3-amino-2-hydroxy-3-(thiophen-2-yl)propanoyl)-L-prolinate]
Recombinant human PEPD
  IC50: 2 µM
XPNPEP1
  IC50: 65 µM

## CC(C)C[C@H](NC(=O)[C@@H]1CCCN1C(=O)[C@@H](O)[C@H](N)CC(C)C)C(N)=O [CQ96, (S)-1-((2S,3R)-3-amino-2-hydroxy-5-methylhexanoyl)-N—((S)-1-amino-4-methyl-1-oxopentan-2-yl)pyrrolidine-2-carboxamide]
Recombinant human PEPD
  IC50: 7.5 µM
XPNPEP1
  IC50: 10 µM

## CC(C)C[C@H](NC(=O)[C@@H]1CCCN1C(=O)[C@@H](O)[C@H](N)CC(C)C)C(=O)N(C)C [CQ109, (S)-1-((2S,3R)-3-amino-2-hydroxy-5-methylhexanoyl)-N—((S)-1-(dimethylamino)-4-methyl-1-oxopentan-2-yl)pyrrolidine-2-carboxamide]
Recombinant human PEPD
  IC50: 4 µM
XPNPEP1
  IC50: 11 µM

## CC(C)CCNC(=O)[C@H](CC(C)C)NC(=O)[C@@H]1CCCN1C(=O)[C@@H](O)[C@H](N)CC(C)C [CQ110, (S)-1-((2S,3R)-3-amino-2-hydroxy-5-methylhexanoyl)-N—((S)-1-(isopentylamino)-4-methyl-1-oxopentan-2-yl)pyrrolidine-2-carboxamide]
Recombinant human PEPD
  IC50: 1.5 µM
XPNPEP1
  IC50: 14 µM

## CONC(=O)[C@H](CC(C)C)NC(=O)[C@@H]1CCCN1C(=O)[C@@H](O)[C@H](N)CC(C)C [CQ111, (S)-1-((2S,3R)-3-amino-2-hydroxy-5-methylhexanoyl)-N—((S)-1-(methoxyamino)-4-methyl-1-oxopentan-2-yl)pyrrolidine-2-carboxamide]
Recombinant human PEPD
  IC50: 14 µM
XPNPEP1
  IC50: 84 µM

## CC(C)C[C@H](NC(=O)[C@@H]1CCCN1C(=O)[C@@H](O)[C@H](N)CC(C)C)C(=O)N1CCC1 [CQ112, (S)-1-((2S,3R)-3-amino-2-hydroxy-5-methylhexanoyl)-N—((S)-1-(azetidin-1-yl)-4-methyl-1-oxopentan-2-yl)pyrrolidine-2-carboxamide]
Recombinant human PEPD
  IC50: 66 µM
XPNPEP1
  IC50: 95 µM

## CC(C)C[C@H](NC(=O)[C@@H]1CCCN1C(=O)[C@@H](O)[C@H](N)CC(C)C)C(=O)NS(=O)(=O)N(C)C [CQ113, (S)-1-((2S,3R)-3-amino-2-hydroxy-5-methylhexanoyl)-N—((S)-1-((N,N-dimethylsulfamoyl)-amino)-4-methyl-1-oxopentan-2-yl)pyrrolidine-2-carboxamide]
Recombinant human PEPD
  IC50: 0.56 µM
XPNPEP1
  IC50: 2.9 µM

## CC(C)C[C@H](NC(=O)[C@@H]1CCCN1C(=O)[C@@H](O)[C@H](N)CC(C)C)C(=O)NCCF [CQ114, (S)-1-((2S,3R)-3-amino-2-hydroxy-5-methylhexanoyl)-N—((S)-1-((2-fluoroethyl)amino)-4-methyl-1-oxopentan-2-yl)pyrrolidine-2-carboxamide]
Recombinant human PEPD
  IC50: 0.72 µM
XPNPEP1
  IC50: 7 µM

## CC(C)C[C@H](NC(=O)[C@@H]1CCCN1C(=O)[C@@H](O)[C@H](N)CC(C)C)C(=O)NC(C)(C)C [CQ115, (S)-1-((2S,3R)-3-amino-2-hydroxy-5-methylhexanoyl)-N—((S)-1-(tert-butylamino)-4-methyl-1-oxopentan-2-yl)pyrrolidine-2-carboxamide]
Recombinant human PEPD
  IC50: 3.7 µM
XPNPEP1
  IC50: 14 µM

## CC(C)C[C@H](NC(=O)[C@@H]1CCCN1C(=O)[C@@H](O)[C@H](N)CC(C)C)C(=O)NCCc1ccc2ccccc2c1 [CQ117, (S)-1-((2S,3R)-3-amino-2-hydroxy-5-methylhexanoyl)-N—((S)-4-methyl-1-((2-(naphthalen-2-yl)ethyl)amino)-1-oxopentan-2-yl)pyrrolidine-2-carboxamide]
Recombinant human PEPD
  IC50: 7.6 µM
XPNPEP1
  IC50: 2.2 µM

## CC(C)C[C@H](NC(=O)[C@@H]1CCCN1C(=O)[C@@H](O)[C@H](N)CC(C)C)C(=O)NCCc1ccc(-c2ccccc2)cc1 [CQ119, (S)—N—((S)-1-((2-([1,1′-biphenyl]-4-yl)ethyl)amino)-4-methyl-1-oxopentan-2-yl)-1-((2S,3R)-3-amino-2-hydroxy-5-methylhexanoyl)pyrrolidine-2-carboxamide]
Recombinant human PEPD
  IC50: 14 µM
XPNPEP1
  IC50: 1.7 µM

— patent US20250368624A1, “M24B AMINOPEPTIDASE INHIBITORS FOR CARD8 INFLAMMASOME ACTIVATION” (Memorial Sloan-Kettering Cancer Center, priority 2022, published 2025)
